In publication PMC11024869, “The activity of antimicrobial peptoids against multidrug-resistant ocular pathogens” (Contact lens & anterior eye : the journal of the British …, 2024):
No end group written: not given here.

Legend:
Proteinase K = Proteinase K (Parengyodontium album, UniProt P06873)
Experimental: (§1) Melimine was used as positive control as it is a cationic antimicrobial peptide that can be hydrolysed by proteases. The Expasy peptide cutter module (https://web.expasy.org/peptide_cutter/) was accessed to predict which proteases might digest melimine. The susceptibility of the antimicrobial compounds to digestion by two proteases expected to digest melimine, Proteinase K (120 unit mL^−1 in 20 mM Tris HCl, pH 7.4; New England Bio Labs, Australia) and Trypsin (10,350 BAFE units/mg in 50 mM borate buffer, pH 8.5; Thermo Scientific products, Australia), was tested. The peptoids and melimine were incubated with each protease at the ratio (w/w) of 1:100 in PBS (pH 7.4) for 24 h at 37 °C. After incubation, the peptoid/melimine + protease solutions were tested for their activity against P. aeruginosa 216 which was grown overnight in TSB at 37 °C. Bacterial cells were washed three times in PBS and then resuspended in MHB OD660nm of 0.1 (equal to 1x10^8 CFU mL^−1. The bacterial suspension was then diluted in MHB to a final working concentration of 5x10^6 cells mL^−1. The diluted bacterial suspension was subsequently added to the wells containing the peptoids/melimine + protease solution and incubated for 24 h at 37 °C. Peptoids/melimine solutions alone (no proteases) were used as a positive control, while protease solutions without the peptoids/melimine were used as a negative control. Post incubation, to inhibit the activity of the proteases, the bacterial suspensions were heated at 55 °C for 10 min in a water bath. After the heating step, the absorbance of the suspensions was measured at OD660nm.

Trypsin = target: T1, Trypsin (Bos taurus, UniProt P00760)
T1 sequence (P00760 24-246): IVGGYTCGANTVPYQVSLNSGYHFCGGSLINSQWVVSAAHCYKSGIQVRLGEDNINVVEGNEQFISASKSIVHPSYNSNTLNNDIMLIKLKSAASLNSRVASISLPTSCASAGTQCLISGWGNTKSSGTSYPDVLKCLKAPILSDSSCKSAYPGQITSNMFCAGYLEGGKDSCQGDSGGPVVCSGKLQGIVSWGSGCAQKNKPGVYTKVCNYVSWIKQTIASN
Experimental: as §1

Bacillus subtilis = conditions: cited from earlier work
Experimental: (§2) Peptoids act similarly to AMPs as their cationic regions interact electrostatically with the anionic membranes of bacteria and may also facilitate the targeting of intracellular DNA and ribosomal agglutination. […] For example, peptoids can have minimum inhibitory concentrations as low as 1.8 μg mL^−1 against Bacillus subtilis and 12.4 μg mL^−1 against Escherichia coli, whereas these bacteria had MICs of 4.5 μg mL^−1 and 35.6 μg mL^−1, respectively, with the AMP melittin [31] Di-guanidine peptoids, produced via acid amine-coupling between nap ...

Escherichia coli = conditions: cited from earlier work
Experimental: as §2

[1] = incubated with protease at ratio (w/w) 1:100 in PBS pH 7.4, 24 h 37 °C, then P aeruginosa 216 in MHB 24 h 37 °C, OD660nm
[2] = result in words, 24 h 37 °C, P. aeruginosa 216

Chain of Proteinase K (P06873 106-384): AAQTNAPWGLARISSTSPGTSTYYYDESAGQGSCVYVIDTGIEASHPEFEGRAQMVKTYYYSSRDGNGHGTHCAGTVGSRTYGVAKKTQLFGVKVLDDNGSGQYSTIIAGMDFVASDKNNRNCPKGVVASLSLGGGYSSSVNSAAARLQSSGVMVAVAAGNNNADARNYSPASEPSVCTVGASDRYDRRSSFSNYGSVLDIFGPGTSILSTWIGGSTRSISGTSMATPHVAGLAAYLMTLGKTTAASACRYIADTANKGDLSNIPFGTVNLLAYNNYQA

| Substance | MIC after Proteinase K (Proteinase K; [1]) | antimicrobial activity after digestion with proteinase K (Proteinase K; [2]) | MIC after Trypsin (Trypsin; [1]) | antimicrobial activity after digestion with trypsin (Trypsin; [2]) | MIC (Bacillus subtilis) [µg/mL] | MIC (Escherichia coli) [µg/mL] |
| --- | --- | --- | --- | --- | --- | --- |
| TLISWIKNKRKQRPRVSRRRRRRGGRRRR [Melimine, reference compound] | >250 (66) μg mL^−1 | lost all of its antimicrobial activity | >250 (66) μg mL^−1 | lost all of its antimicrobial activity | – | – |
| melittin: the AMP melittin | – | – | – | – | 4.5 | 35.6 |
